Reference: US20250275968A1, “INHIBITORS OF TAU PROTEINS” (DEUTSCHES ZENTRUM FÜR NEURODEGENERATIVE ERKRANKUNGEN E.V., priority 2022, published 2025)
Counter-ions that a name gives are not always drawn.

Key:
[1] = target: T1, 2N4R tau (Homo sapiens, UniProt P10636); assay: In vitro seeded aggregation/fibrillization assay of 2N4R tau (ThT fluorescence); type: biochemical; conditions: for In vitro seeded aggregation/fibrillization of full-length tau (ThT fluorescence curves): 2N4R tau, various formulations
T1 construct: Full-length 2N4R tau was incubated with Osimertinib mesylate
Method: Aggregation of 2N4R Tau was performed using a previously published co-factor-free aggregation protocol, with a few modifications (Reference: Chakraborty, P. et al. Co-factor-free aggregation of tau into seeding-competent RNA-sequestering amyloid fibrils. Nat. Commun. 12, 4231 (2021)). Aggregation experiments used the Tau protein stock prepared in 25 mM HEPES pH 7.4, 1 mM TCEP. Stocks of compounds were prepared in aggregation buffer (25 mM HEPES, 10 mM KCl, 5 mM MgCl2, pH 7.2) or in DMSO (10 mM compound).
(§1) To prepare the Tau fibril seeds by de novo aggregation, 2N4R Tau at a monomer concentration of 25 μM was diluted in aggregation buffer. The working concentration of TCEP in the aggregation mixture was <25 μM after dilution of the stock. To this mixture, Thioflavin T (ThT) was added to a final concentration of 50 μM. A total volume of 100 μL of the Tau-ThT mixture was incubated in a well of a 96-well microplate (Greiner Bio-one), in the presence of two polytetrafluoroethylene beads. The microplate was subjected to a program implemented in a Tecan Spark plate reader that involved incubating at 37° C., with intervals of double orbital shaking and ThT fluorescence emission measurement. The excitation wavelength for ThT was set as 430 nm and the emission wavelength was 485 nm. Details of this plate reader program were published previously (Reference: Chakraborty, P. et al. Co-factor-free aggregation of tau into seeding-competent RNA-sequestering amyloid fibrils. Nat. Commun. 12, 4231 (2021)). […] The fibril-containing mixture collected from the microplate served as a seeding mixture for the subsequent aggregation assays.
Seeded aggregation assays were performed as described above but with 1.0% of the well volume occupied by the seeding mixture sonicated for 1 minute. The assays were performed in the presence and absence of compounds, and working concentrations ranged from 0-250 μM compound.
Analyses of the fluorescence curves were performed using Graphpad PRISM version 8. Fluorescence data were fit to a sigmoid function. The number of hours corresponding to half-maximal ThT Fluorescence™ as well as the span of fluorescence intensity (Span) were determined for each sigmoid curve. Statistically significant differences were determined by one-way ANOVA analysis with Dunnett's multiple comparison test or unpaired t-test.

[2] = target: T2, 2N4R tau aggregates (Homo sapiens, UniProt P10636); assay: Dissolution of preformed 2N4R tau fibrils (ThT fluorescence, TEM); type: biochemical; conditions: compounds added to tau fibrils after about 40 h; tau monomer:Compound 1:3 and 1:10
T2 construct: Full-length 2N4R tau was incubated with Osimertinib mesylate
Method: (A) ThT fluorescence curves monitoring tau aggregation. tau fibrillization reached a saturation point within about 40 h, then compounds or buffer (Reference) were added to tau fibrils (tau monomer:Compound mole ratios 1:3 and 1:10). The experiment was performed in duplicate. […] Statistically significant differences were determined by one-way ANOVA with Dunnett's multiple comparison test. Significant differences corresponding to p≤0.0002(***) and p≤0.0001(****) are indicated. […] Scale bars are 500 nm. […] The dotted line corresponds to one standard deviation above the Reference value.
as §1
Fibril samples were negative stained using glow discharged 400 mesh carbon-coated copper grids. After staining using a 1% uranyl acetate solution, images were acquired on a Talos L120C transmission electron microscope (Thermo Fisher, Eindhoven, The Netherlands).

[3] = target: T3, tau(244-372, 13818 Da) (Homo sapiens, UniProt P10636); assay: ESI-MS covalent modification of tau; type: binding
T3 construct: comprising residues 244-372 of 2N4R Tau
Method: This analysis was performed using the 4R Tau construct (K18 construct, 13818 Da) comprising residues 244-372 of 2N4R Tau. Compounds (330 μM) were incubated with 4R Tau (65 μM) for 16 h at 37° C. in 10 mM ammonium bicarbonate at pH 7.0. The compound/4R Tau mixtures were injected into an LC system (ACQUITY) coupled to a single quadrupole mass detection system (SQ Detector 2, Waters) with diode-array detectors (DAD). The DAD spectrum covers wavelengths of 210-400 nm. Components of the compound-4R Tau mixture were separated using a BioResolve RP mAb column (Waters) with a gradient of 5-95% buffer B (buffer A is 0.1% TFA in water and buffer B is 0.1% TFA in acetonitrile). Covalent modification of 4R Tau corresponded to mass additions of 500 Da (Osimertinib) and 486 Da (AZ7550 or AZ5104).

[4] = target: T4, 15N-labeled 2N4R tau (Homo sapiens, UniProt P10636); assay: SOFAST-HMQC NMR binding to monomeric tau; conditions: for binding to tau (NMR spectroscopy): 18 μM tau, 50 mM sodium phosphate pH 6.8, 16 h at 37° C., spectra at 5° C.
T4 construct: Full-length 2N4R tau was incubated with Osimertinib mesylate
Text: (A) Overlaid spectra of 2N4R tau with (black) and without (grey) a 100-fold molar excess of Osimertinib mesylate.
To obtain residue-specific information about the interaction between Tau and the compounds, ^1H-^15N correlation spectra of 2N4R Tau were monitored over the course of a titration with increasing amounts of compound. The ^1H-^15N SOFAST-HMQC (Reference: Schanda, P., Kupce, E. & Brutscher, B. SOFAST-HMQC experiments for recording two-dimensional heteronuclear correlation spectra of proteins within a few seconds. J. Biomol. NMR 33, 199-211 (2005)) spectra of [U-^15N]-Tau were acquired at 5° C. on a Bruker 800 MHz spectrometer equipped with a triple-resonance cryoprobe. Tau samples (18-25 μM) were prepared in NMR buffer containing 10% (v/v) D2O, and with compound concentrations that corresponded to Tau:compound mole ratios of 1:10 and 1:100. All NMR samples were incubated overnight (˜16 h) at 37° C. prior to spectral acquisition. Tau amide assignments were taken from a previous study (Reference: Mukrasch, M. et al. Structural polymorphism of 441-residue tau at single residue resolution. PLoS Biol. 7, e34 (2009)). However, because previous assignments were obtained using a Tau sample prepared in the presence of reducing agents, some amide resonances belonging to the repeat region of Tau (close to C291 and C322) were not unambiguously transferred to the SOFAST-HMQC spectra acquired under oxidizing conditions. Therefore, to obtain nearly complete backbone assignments in the repeat region, 3D HNCA, 3D HNCOCA, and 3D CBCACONH spectra were recorded for a [U-^13C,^15N]-4R Tau (K18 construct) sample prepared under the same buffer condition. The weighted, normalized chemical shift perturbations (CSP) were calculated as CSP=√[0.5 [(Δδ H)^2+(Δδ N)^2/25]. NMR signal intensity ratios, I/I0 (where I is the peak intensity of Tau amide backbone resonances in the presence of the compounds, and I0 is the peak intensity in the absence of the compounds), were calculated for each titration point.

[5] = 2N4R tau^wt, mole ratios 1:3 and 1:10

T4 sequence (P10636 1-441 isoform P10636-8): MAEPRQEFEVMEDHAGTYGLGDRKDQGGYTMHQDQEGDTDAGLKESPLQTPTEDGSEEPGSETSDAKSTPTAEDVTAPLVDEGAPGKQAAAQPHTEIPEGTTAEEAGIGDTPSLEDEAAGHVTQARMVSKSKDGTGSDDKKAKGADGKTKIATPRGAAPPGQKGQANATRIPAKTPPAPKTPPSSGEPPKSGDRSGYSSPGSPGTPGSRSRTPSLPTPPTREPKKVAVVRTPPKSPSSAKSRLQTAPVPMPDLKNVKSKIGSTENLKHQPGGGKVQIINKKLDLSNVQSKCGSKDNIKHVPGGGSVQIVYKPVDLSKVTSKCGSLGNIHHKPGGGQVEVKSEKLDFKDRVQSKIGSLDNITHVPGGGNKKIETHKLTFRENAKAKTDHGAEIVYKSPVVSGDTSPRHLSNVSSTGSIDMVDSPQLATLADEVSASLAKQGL
T1 sequence (P10636 1-441 isoform P10636-8): as above
T2 sequence (P10636 1-441 isoform P10636-8): as above
T3 sequence (P10636 561-689): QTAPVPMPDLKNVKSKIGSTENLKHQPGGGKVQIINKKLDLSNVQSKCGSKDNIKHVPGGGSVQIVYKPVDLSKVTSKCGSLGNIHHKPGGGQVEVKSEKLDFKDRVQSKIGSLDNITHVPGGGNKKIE

SMILES	In vitro seeded aggregation/fibrillization of full-length tau (ThT fluorescence curves) [1]	inhibitory activity towards tau aggregation ([1]; 2.5% (v/v) DMSO)	dissolution of 2N4R tau aggregates (reduction of ThT fluorescence intensity) [2]	covalent modification of cysteines in tau (ESI-MS) [3]	binding to tau (NMR spectroscopy) [4]	NMR signal intensity ratio I/I0 ([4]; 16 h incubation at 37° C.)	normalized Span of ThT fluorescence [1, 5]	normalized Tm (midpoint of aggregation curve) [1, 5]
C=CC(=O)Nc1cc(Nc2nccc(-c3cn(C)c4ccccc34)n2)c(OC)cc1N(C)CCN(C)C [Osimertinib, N-[2-(2-Dimethylaminoethylmethylamino)-4-methoxy-5-[[4-(1-methylindol-3-yl)pyrimidin-2-yl]amino]phenyl]prop-2-enamide]	inhibited in a dose-dependent manner	strong inhibitory activity	partially dissolve	confirms covalent modification of cysteines	–	–	–	–
C=CC(=O)Nc1cc(Nc2nccc(-c3c[nH]c4ccccc34)n2)c(OC)cc1N(C)CCN(C)C [Compound 3, N-[2-[[2-(dimethylamino)ethyl]methylamino]-5-[[4-(1H-indol-3-yl)-2-pyrimidinyl]amino]-4-methoxyphenyl]-2-Propenamide]	inhibited in a dose-dependent manner	–	partially dissolve	confirms covalent modification of cysteines	reveals binding	above 1	–	–
C=CC(=O)Nc1cc(Nc2nccc(-c3cn(C)c4ccccc34)n2)c(OC)cc1N(C)CCN(C)C [Osimertinib mesylate, N-[2-(2-Dimethylaminoethylmethylamino)-4-methoxy-5-[[4-(1-methylindol-3-yl)pyrimidin-2-yl]amino]phenyl]prop-2-enamide Mesylate Salt]	–	–	–	–	reveals binding	–	statistically lower normalized Span values	do not show a clear dose-dependence
